In one assay the test system is mustard plants. Kind of assay: Comparison of herbicidal activity, track-sprayer application to mustard plants. It is filed as in vivo. To be noted: fifteen day mustard plants; sprayed at 0.25 and 1.0 mg/mL; counted on the 7th and 14th days; four replicates. As to the method: Synthesized thaxtomin A and thaxtomin A from fermentation were separately dissolved in ethanol first (final ethanol concentration in the spraying solution was 2%), then added into 0.2% Glycosperse O-20 water solution. Sonication completely dissolved the thaxtomin A. The concentration of thaxtomin A was 0.25 and 1.0 mg/mL. Water with 2% ethanol and 0.2% Glycosperse O-20 was used as a blank control. Fifteen day mustard plants were used in the experiments. Four replicates for each concentration of thaxtomin A were carried out. Spraying was performed using a Track Sprayer. The herbicidal activity was graded as percent control. Herbicidal activity was counted on the 7th and 14th days, respectively.

A further assay relates to plant cells. Conditions: Lawrence et al., 1990; cited from earlier work.

Data on 2 compounds can be found in patent US8993762B2, “Total synthesis of thaxtomin A analogues and their intermediates” (Marrone Bio Innovations, Inc, priority 2013, dated 2015).

As to `CN1C(=O)[C@](O)(Cc2cccc(O)c2)N(C)C(=O)[C@@H]1Cc1c[nH]c2cccc([N+](=O)[O-])c12` [Synthesized thaxtomin A, Thaxtomin A], in the assay on mustard plants, the “herbicidal activity graded as percent control, synthesized vs natural thaxtomin A” value is listed as “no significant difference”. Besides, the “effect on plant cells” value in the assay on plant cells is reported as “hypertrophy of plant cells at nanomolar amounts”.
Regarding `CN1C(=O)[C@](O)(Cc2cccc(O)c2)N(C)C(=O)[C@@H]1Cc1c[nH]c2cccc([N+](=O)[O-])c12` [thaxtomin A from fermentation, thaxtomin A], the “herbicidal activity graded as percent control, synthesized vs natural thaxtomin A” value with mustard plants was “no significant difference”.
